IC50 data for 2 compounds are collected here from patent US9611257B2, “PRMT5 inhibitors and uses thereof” (Epizyme, Inc., priority 2012, dated 2017).

For orientation: IC50 means the concentration that inhibits the measured activity by half.

This experiment deals with T1, PRMT5/MEP50 (Homo sapiens, UniProt O14744).
T1 construct: Expressed full-length human Flag-PRMT5/6His-MeP50 protein complex was purified; made in house; host or cells: Spodoptera frugiperda (SF9) insect cells, baculovirus (pDEST8)
T1 sequence (O14744 with tags, fused parts or gaps): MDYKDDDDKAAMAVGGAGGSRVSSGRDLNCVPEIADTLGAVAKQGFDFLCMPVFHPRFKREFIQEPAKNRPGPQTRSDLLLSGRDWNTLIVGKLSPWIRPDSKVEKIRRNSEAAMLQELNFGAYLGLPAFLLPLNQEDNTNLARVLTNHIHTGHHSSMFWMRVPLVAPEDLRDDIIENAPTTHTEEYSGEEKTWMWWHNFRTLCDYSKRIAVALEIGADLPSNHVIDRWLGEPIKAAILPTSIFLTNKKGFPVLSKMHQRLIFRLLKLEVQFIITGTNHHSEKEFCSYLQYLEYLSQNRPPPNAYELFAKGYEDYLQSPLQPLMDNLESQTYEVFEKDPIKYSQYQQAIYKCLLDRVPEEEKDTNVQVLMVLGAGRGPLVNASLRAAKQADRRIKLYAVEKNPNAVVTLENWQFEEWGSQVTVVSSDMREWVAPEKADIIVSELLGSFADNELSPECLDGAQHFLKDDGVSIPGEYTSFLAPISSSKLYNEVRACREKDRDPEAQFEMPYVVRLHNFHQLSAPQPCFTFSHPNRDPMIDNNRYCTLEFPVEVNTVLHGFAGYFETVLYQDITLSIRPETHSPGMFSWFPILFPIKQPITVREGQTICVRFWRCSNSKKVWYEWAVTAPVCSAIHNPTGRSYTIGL
T1 sequence (Q9BQA1 with tags, fused parts or gaps partner limits assumed): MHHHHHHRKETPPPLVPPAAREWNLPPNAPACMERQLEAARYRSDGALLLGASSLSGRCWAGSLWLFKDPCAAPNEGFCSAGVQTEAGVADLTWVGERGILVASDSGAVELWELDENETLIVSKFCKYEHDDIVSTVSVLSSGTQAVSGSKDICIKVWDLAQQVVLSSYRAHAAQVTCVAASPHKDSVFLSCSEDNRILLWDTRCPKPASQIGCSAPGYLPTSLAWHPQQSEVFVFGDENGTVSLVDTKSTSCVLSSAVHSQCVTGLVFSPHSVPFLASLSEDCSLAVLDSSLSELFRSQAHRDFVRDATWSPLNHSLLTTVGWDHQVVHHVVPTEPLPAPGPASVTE
The experiment can be described thus: PRMT5 Biochemical Assay (PRMT5/MEP50 enzyme assay on peptide substrate, 3H-SAM Flashplate). Conditions: PRMT5/MEP50 4 nM, 3H-SAM 75 nM, peptide 40 nM, 30 min preincubation at 25 degrees Celsius. On the procedure: • Mobile phase A: 4 L H2O\1.5 ml TFA; Mobile phase B: 4 L ACN\0.75 ml TFA • Column: HPLC-D: Innovation C18 UPLC Column 2.1×30 mm, 2.6 um • HPLC-E: Xtimate C18 2.1*30 mm*3 um • HPLC-H: Innovation C18 UPLC Column 2.1×30 mm, 2.6 um • Column temperature: 50° C.; Wavelength: 220 nm & 254 nm & 215 nm General HPLC Conditions (Basic) • Mobile phase A: 4 L H2O\2 ml NH4OH; Mobile phase B: Acetonitrile • Column: HPLC-B: XBridge C18 2.1*50 mm, 5 um • HPLC-C: Xbridge shield RP18 2.1*50 mm, 5 u • Column temperature: 30° C.; Wavelength: 220 nm & 254 nm & 215 nm General HPLC Conditions (Neutral) • Mobile phase A: H2O; Mobile phase B: Acetonitrile • Column: HPLC-B: XBridge C18 2.1*50 mm, 5 um • HPLC-C: Xbridge shield RP18 2.1*50 mm, 5 um • Column temperature: 30° C.; Wavelength: 220 nm & 254 nm & 215 nm Method A (0-30AB_6MIN) Flow Rate: 0.8 ml/min Gradient: 0% B to 30% B in 4.2 min, holding 30% B for 1 min, 30% B to 0% B in 0.01 min, holding 0% B for 1.09 min and then end. Method B (0-60AB_6MIN) • Flow Rate: 0.8 ml/min • Gradient: 0% B to 60% B in 4.2 min, holding 60% B for 1 min, 60% B to 0% B in 0.01 min, holding 0% B for 1.09 min and then end. Method C (10-80AB_6MIN) • Flow Rate: 0.8 ml/min • Gradient: 10% B to 80% B in 4.2 min, holding 80% B for 1 min, 80% B to 10% B in 0.01 min, holding 10% B for 1.09 min and then end. […]

In the case of `O=C(NC1CCOCC1)c1ccn(CC(O)CN2CCc3ccccc3C2)c(=O)c1` (centres unmarked) [Compound 33], the IC50 was in the range of 0.101 to 1 µM.
The same measure for `O=C(NC1CCOCC1)c1cc(=O)n(CC(O)CN2CCc3ccccc3C2)cn1` (centres unmarked) [Compound 34]: 1 to 10 µM.
